Earlier results, collected in patent US20050266081A1, “Antimicrobial silver hydrogels” (priority 2004, published 2005).

System: skin cell respiration
Conditions: application of 1 to 10 mg/ml of silver; probable factor in the interference of wound healing

**Q.** For silver, which “inhibition of skin cell respiration” value is on record?
**A.** 30%
